Source: US8551963B2, “Imidazolothiazole compounds and methods of use thereof” (Ambit Biosciences Corporation, priority 2008, dated 2013)
pIC50, pKd, pKi: −log10 of the molar value. Where two headings read alike, the source gives them in different places.

Assays:
[1] = biological target: CYP2C9 (Homo sapiens (Human), UniProt P11712); assay: Cyp enzyme inhibition assay in human liver microsomes, CYP2C9; format: in vitro ADME; conditions: CYP2C9, substrate Diclofenac
Description: The ability of the compound I-1 to inhibit human metabolizing enzymes CYP3A4, CYP2C9, […], CYP2C19 and CYP1A2, was assessed using those enzymes found collectively in human liver microsomes. The test compound I-1 was prepared as a solution in DMSO or acetonitrile and plated in duplicate rows of a 96-well plate (Nunc) for a final assay concentration of 40 μM in 0.2% DMSO (or 2% acetonitrile) in the first column and serially diluted two-fold going down the row. A known selective inhibitor of a given CYP enzyme listed in Table 8 was selected as the appropriate positive control. For each CYP enzyme inhibition assay, an appropriate enzyme-substrate mixture was prepared to afford a final assay concentration of 75 mM KPO4/pH 7.4, 6.5 mM MgCl2, 0.25 mg/mL pooled male and female human liver microsome (CellzDirect lot HMMC-PL020) with the amounts of the appropriate substrate for each CYP enzyme assay given in Table 8. The enzyme-substrate mixture was added to columns 1 through 10 and column 11 served as a negative control with enzyme solution lacking substrate. A solution of NADPH (Calbiochem) was then added to all rows except for one where NADPH would be added after the incubation period, in order to detect NADPH-independent non-CYP-mediated metabolism. The plate was briefly vortexed and left to shake in a 37° C. water bath for 20 minutes. […]

[2] = biological target: T1, CYP2C8 (Homo sapiens (Human), UniProt P10632); assay: Inhibitory constant KI in human liver microsomes, CYP2C8; format: in vitro ADME; conditions: CYP2C8, global non-linear regression
Description: A 2 mM stock of Compound I-1 was prepared in acetonitrile (ACN) and serially diluted 2-fold from 2000 μM to 15.63 μM in ACN. […] Individual human liver microsome preparations containing the substrate were then incubated with Compound I-1 (final concentration range 40 μM to 0.31 μM of Compound I-1) for a final incubation concentration of 0.5 mg/mL microsome, 75 mM KPO4, 6.5 mM MgCl2, 1 mM NADPH and 2% acetonitrile (ACN). The samples were incubated in a 37° C. shaking water bath for 20 minutes then quenched with ACN:water (75:25) containing internal standards propranolol at 0.3 ng/mL and cortisone at 0.3 ng/mL. After brief mixing, the plate was centrifuged and the supernate removed for analysis by LC/MS/MS (API 4000 Qtrap) for formation of 6-hydroxy-testosterone (CYP3A4), 4-hydroxy-mephenyloin (CYP2C19) or hydroxy-taxol (CYP2C8). The data was analyzed using global non-linear regression software (GraphPad Prism) and the overall fit of the data (R^2) was used to determine if Compound I-1 was a competitive, non-competitive, or uncompetitive inhibitor. In addition the data was plotted as a Lineweaver-Burke graph (1/V versus 1/S, where V is the […] and S is the substrate concentration) for each inhibitor concentration. Based on the location of convergence (competitive and non-competitive) or non convergence (uncompetitive) of the plots at each inhibitor concentration, the type of inhibition was determined.
Global non-linear regression allows analysis of all the individual inhibitor curves simultaneously and determines the best fit value for shared parameters between the data sets, in this case KI (or KI′). The results of the global nonlinear analysis of Compound I-1 inhibition of the CYP450 isoforms 3A4, 2C19 and 2C8 are shown in Table 12.

[3] = test system: plasma protein; assay: Plasma protein binding assay (equilibrium dialysis); format: in vitro ADME; conditions: 1 μM, equilibrium dialysis 16-20 hours at 37° C.
Description: Reagents: 1× Isotonic PBS (Mediatech, Inc., Herndon, Va.); 96 Well Equilibrium Dialyzer (Harvard Apparatus, Holliston, Mass.) and Animal plasma from species of interest.
1 μM solutions of test compound were prepared in both isotonic PBS and 10% animal plasma in isotonic PBS.
200 μl of each test solution was added to opposite sides of the equilibrium dialysis membrane.
Samples were incubated for 16-20 hours at 37° C.
After incubation, 100 μl sample was removed from the PBS side and diluted with 100 μl of 20% animal plasma in PBS.
100 μl sample was removed from the 10% animal plasma side and diluted with 100 μl of 10% animal plasma.
A calibration curve was prepared in 10% animal plasma to extrapolate unknown concentrations.
Samples were analyzed by LC/MS/MS.
50 μl of samples, calibration standards and quality control standards were extracted with 100 μl of acetonitrile containing 25 ng/ml of internal standard.
Calculations Calculate fraction unbound in 10% plasma Fu(10%)=1−(PC−PF)/PC) Convert 10% plasma value to 100% Fu(100%)=Fu10%/(10−9*Fu10%).

[4] = biological target: T1, CYP2C8; assay: Time dependant inhibition in human liver microsomes, CYP2C8; format: in vitro ADME
Description: (§1) For each CYP isoform tested, 10 μM Compound I-1 was pre-incubated with pooled male and female human liver microsomes with NADPH in a 37° C. shaking water bath in duplicate to afford a final pre-incubation assay concentration of 100 mM KPO4/pH 7.4, 10 mM MgCl2, 2 mg/mL of human liver microsome (CellzDirect lot HLM HMMC-PL020) and 1 mM NADPH (Calbiochem). At each pre-incubation time point (0, 5, 10, 20, and 30 minutes) 20 μL was removed and placed in a second 96 well plate on ice. After all pre-incubation time points were collected 180 uL of additional human microsome liver preparation containing the appropriate CYP specific substrate at its Km concentration listed in Table 11 plus NADPH, was added to each time point. The samples were incubated for an additional 10 minutes in a 37° C. shaking water bath and then quenched with 75:25 acetonitrile (ACN):water containing the appropriate internal standards listed in Table 11. After brief mixing, the plate was centrifuged and the supernatant removed for analysis by LC/MS/MS (API 4000 Qtrap) for the formation of 6-hydroxy-testosterone (CYP3A4), 4-hydroxy-mephenyloin (CYP2C19), or 6-hydroxy-taxol (CYP2C8). […] Consistent with Example 5, Compound I-1 did inhibit CYP2C8-mediated metabolite formation at 10 μM, but not in a time dependent manner.

[5] = biological target: CYP2C19 (Homo sapiens (Human), UniProt P33261); assay: Time dependant inhibition in human liver microsomes, CYP2C19; format: in vitro ADME; conditions: CYP2C19, 10 μM, pre-incubation 0-30 minutes
Description: as §1

[6] = biological target: FLT3 (Homo sapiens (Human), UniProt P36888); assay: biochemical; format: binding
Sequence of FLT3 (P36888 27-993): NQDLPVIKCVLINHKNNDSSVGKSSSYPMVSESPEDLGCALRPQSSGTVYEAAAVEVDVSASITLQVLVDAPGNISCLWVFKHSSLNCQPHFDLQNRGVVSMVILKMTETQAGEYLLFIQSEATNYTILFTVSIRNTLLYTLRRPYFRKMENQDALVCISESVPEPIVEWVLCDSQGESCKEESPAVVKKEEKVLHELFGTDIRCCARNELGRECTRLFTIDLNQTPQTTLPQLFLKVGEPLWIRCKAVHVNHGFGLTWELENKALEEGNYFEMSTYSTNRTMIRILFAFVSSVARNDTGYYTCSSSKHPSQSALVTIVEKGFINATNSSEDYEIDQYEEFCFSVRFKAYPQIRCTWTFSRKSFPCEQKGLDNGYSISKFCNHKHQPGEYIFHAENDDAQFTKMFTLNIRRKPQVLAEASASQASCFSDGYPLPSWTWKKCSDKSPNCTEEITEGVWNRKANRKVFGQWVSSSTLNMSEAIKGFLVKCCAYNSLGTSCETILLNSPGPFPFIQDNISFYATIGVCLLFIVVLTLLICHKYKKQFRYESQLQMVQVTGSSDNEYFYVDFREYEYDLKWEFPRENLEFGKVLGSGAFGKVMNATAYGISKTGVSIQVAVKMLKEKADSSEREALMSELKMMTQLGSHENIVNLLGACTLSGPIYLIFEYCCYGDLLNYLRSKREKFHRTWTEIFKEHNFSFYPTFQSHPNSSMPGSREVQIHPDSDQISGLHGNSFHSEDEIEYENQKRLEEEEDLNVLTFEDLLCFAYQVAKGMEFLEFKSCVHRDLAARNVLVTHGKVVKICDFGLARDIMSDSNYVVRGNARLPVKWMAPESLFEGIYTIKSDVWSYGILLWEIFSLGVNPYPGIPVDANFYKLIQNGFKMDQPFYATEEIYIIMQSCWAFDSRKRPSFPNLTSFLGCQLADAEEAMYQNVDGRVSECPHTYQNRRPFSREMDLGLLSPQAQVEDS
Description: Competition binding assays used herein were developed, validated and performed as described in Fabian et al., Nature Biotechnology 2005, 23, 329-336. Kinases were produced as fusions to T7 phage (See, Fabian et al. or WO04/015142) or alternatively, the kinases were expressed in HEK-293 cells and subsequently tagged with DNA for PCR detection (See, WO08/005,310). […] The liganded beads were blocked with excess biotin and washed with blocking buffer (SeaBlock (Pierce), 1% BSA, 0.05% Tween 20, 1 mM DTT) to remove unbound ligand and to reduce non-specific binding. […] Test compounds were prepared as 100× stocks in DMSO and rapidly diluted into the aqueous environment. DMSO was added to control assays lacking a test compound. […] The kinase concentration in the eluates was measured by quantitative PCR. Each kinase was tested individually against each compound. Kds were determined using eleven serial threefold dilutions.

T1 sequence (P10632 whole entry): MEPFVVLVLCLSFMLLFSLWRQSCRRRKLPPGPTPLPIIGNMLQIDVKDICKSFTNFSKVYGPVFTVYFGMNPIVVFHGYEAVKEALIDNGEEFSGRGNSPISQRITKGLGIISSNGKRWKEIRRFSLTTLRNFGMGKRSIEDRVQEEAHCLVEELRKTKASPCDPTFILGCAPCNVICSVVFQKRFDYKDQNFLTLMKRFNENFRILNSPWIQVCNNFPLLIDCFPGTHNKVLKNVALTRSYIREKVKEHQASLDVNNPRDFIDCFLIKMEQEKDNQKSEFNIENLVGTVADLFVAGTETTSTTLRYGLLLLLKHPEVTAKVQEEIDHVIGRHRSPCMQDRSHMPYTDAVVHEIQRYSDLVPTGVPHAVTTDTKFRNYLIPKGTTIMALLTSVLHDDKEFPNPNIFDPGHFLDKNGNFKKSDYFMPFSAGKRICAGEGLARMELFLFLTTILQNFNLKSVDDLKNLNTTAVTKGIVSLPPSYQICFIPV
Sequence of CYP2C19 (P33261 whole entry): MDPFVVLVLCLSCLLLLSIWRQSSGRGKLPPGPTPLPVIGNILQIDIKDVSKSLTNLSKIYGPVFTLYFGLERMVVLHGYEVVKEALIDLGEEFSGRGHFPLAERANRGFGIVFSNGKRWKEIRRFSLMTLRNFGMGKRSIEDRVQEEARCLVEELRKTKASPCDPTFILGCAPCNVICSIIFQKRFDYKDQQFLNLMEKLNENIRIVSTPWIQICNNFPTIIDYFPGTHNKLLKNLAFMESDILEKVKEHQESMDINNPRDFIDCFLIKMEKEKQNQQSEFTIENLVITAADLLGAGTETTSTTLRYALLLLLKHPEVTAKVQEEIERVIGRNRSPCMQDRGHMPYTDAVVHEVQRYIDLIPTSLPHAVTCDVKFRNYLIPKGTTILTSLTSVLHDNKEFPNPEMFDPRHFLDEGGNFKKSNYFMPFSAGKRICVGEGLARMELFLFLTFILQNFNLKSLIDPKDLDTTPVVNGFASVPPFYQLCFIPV
Sequence of CYP2C9 (P11712 whole entry): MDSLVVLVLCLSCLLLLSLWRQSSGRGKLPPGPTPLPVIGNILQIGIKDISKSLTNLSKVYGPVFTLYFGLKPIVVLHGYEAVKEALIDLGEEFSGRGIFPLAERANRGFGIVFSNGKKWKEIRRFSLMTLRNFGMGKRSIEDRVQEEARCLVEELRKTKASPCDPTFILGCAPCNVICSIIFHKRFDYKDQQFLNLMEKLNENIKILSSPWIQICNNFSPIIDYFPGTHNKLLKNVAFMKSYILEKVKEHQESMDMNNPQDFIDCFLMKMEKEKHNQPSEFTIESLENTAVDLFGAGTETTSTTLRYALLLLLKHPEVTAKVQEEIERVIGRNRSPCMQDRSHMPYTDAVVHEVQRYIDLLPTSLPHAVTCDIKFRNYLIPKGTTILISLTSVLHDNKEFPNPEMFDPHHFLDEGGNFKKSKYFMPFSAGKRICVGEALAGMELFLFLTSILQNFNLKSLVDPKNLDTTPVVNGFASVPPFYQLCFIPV

CC(C)(CO)c1cc(NC(=O)Nc2ccc(-c3cn4c(n3)sc3cc(OCCN5CCOCC5)ccc34)cc2)no1 [Compound I-1, 1-[5-(2-hydroxy-1,1-dimethyl-ethyl)-isoxazol-3-yl]-3-{4-[7-(2-morpholin-4-yl-ethoxy)-benzo[d]imidazo[2,1-b]thiazol-2-yl]-phenyl}-urea]
pIC50 [1]: < 4.40
pKi ([2]; read-out: Best Fit KI, Competitive): 4.66
pKi ([2]; read-out: Best Fit KI, Non-competitive): 4.22
pKi ([2]; read-out: Best Fit KI′, Uncompetitive): 4.42
Percentage of unbound compound in 10% plasma [3]: 42.5%
Inhibition of CYP2C8-mediated metabolite formation ([4]; 10 μM): did inhibit
Time dependant inhibition ([4]; CYP2C8, 10 μM, pre-incubation 0-30 minutes): not a time dependant inhibitor
Time dependant inhibition [5]: not a time dependant inhibitor
pKd [6]: 9.17
